Molecules are shown by their SMILES. Some results are limits rather than exact numbers.

The subject of data set [1] is HBV. The data set can be described thus: Anti-HBV activity, HepG2.2.15 stable transfected cell line, HBV DNA from secreted virions by realtime PCR. In kind it is cell-based. To be noted: Hepatitis B virus, HepG2.2.15, 144 h, HepG2.2.15 cells, 6 days of treatment, HBV DNA from secreted virions; read-out: HepG2 2.15 EC50.
Data set [2] concerns HBV. Description: Anti-HBV activity, HepG2.117 inducibly HBV producing cell line (Tet-off), intracellular HBV DNA by realtime PCR. The class given is cell-based. To be noted: Hepatitis B virus, HepG2.117, 72 h, HepG2.117 cells, 3 days of treatment, intracellular HBV DNA; read-out: HepG2 117 EC50.
Data set [3] is described as follows: Cytotoxicity in HepG2 cells, Resazurin viability assay. To be noted: human, HepG2 cells, HepG2 4 days CC50 (μM), incubated for 4 days, Resazurin assay. (Alamar Blue is a resazurin reagent that responds to reducing activity.)

For the compound `Cn1cc(S(=O)(=O)NC2CCC(F)(F)C2)cc1C(=O)Nc1cc(F)c(F)c(Cl)c1` (racemic) [Compound 166, N-(3-Chloro-4,5-difluorophenyl)-4-[(3,3-difluorocyclopentyl)sulfamoyl]-1-methyl-1H-pyrrole-2-carboxamide], the EC50 (in general, the concentration at which the effect is half-maximal) is 140 nM in the data set on HBV [1] and 120 nM in the data set with HBV [2]. For the same compound, in data set [3], the cytotoxic concentration (CC50) (commonly the concentration that lowers cell viability or growth by half) at 4 days is above 25 µM.
The matching figures for `CC(CC(F)(F)F)NS(=O)(=O)c1cc(C(=O)Nc2cc(F)c(F)c(Cl)c2)n(C)c1` (racemic) [Compound 169, N-(3-Chloro-4,5-difluorophenyl)-1-methyl-4-[(3,3,3-trifluoro-1-methylpropyl)sulfamoyl]-1H-pyrrole-2-carboxamide]: 120 nM, 70 nM and 11.2 µM.
As for `Cc1cc(NC(=O)c2cc(S(=O)(=O)NC(C)(C)C(=O)O)cn2C)ccc1F` [Compound 61, 2-[[5-[(4-fluoro-3-methyl-phenyl)carbamoyl]-1-methyl-pyrrol-3-yl]-sulfonylamino]-2-methyl-propanoic acid], the concentration for a half-maximal effect (EC50) in the data set on HBV [2] is above 1000 nM. The CC50 at 4 days in data set [3] was above 25 µM.
The matching figures for `COCC(C)(NS(=O)(=O)c1cc(C(=O)Nc2cc(F)c(F)c(Cl)c2)n(C)c1)C(F)(F)F` (stereo not shown) [Compound 73, N-(3-chloro-4,5-difluoro-phenyl)-1-methyl-4-[[2,2,2-trifluoro-1-(methoxymethyl)-1-methyl-ethyl]sulfamoyl]pyrrole-2-carboxamide]: 100 nM and 14.1 µM.
The like results for `Cn1cc(S(=O)(=O)NC2(C)COC2)c(F)c1C(=O)Nc1ccc(F)c(Cl)c1` [Compound 108, N-(3-Chloro-4-fluorophenyl)-3-fluoro-1-methyl-4-[(3-methyloxetan-3-yl)sulfamoyl]-1H-pyrrole-2-carboxamide] were, in that order, 10 nM and above 25 µM.
The like results for `CC[C@H](NS(=O)(=O)c1cn(C)c(C(=O)Nc2ccc(F)c(C#N)c2)c1F)C(F)(F)F` [Compound 284, N-(3-cyano-4-fluoro-phenyl)-3-fluoro-1-methyl-4-[[(1S)-1-(trifluoro-methyl)propyl]sulfamoyl]pyrrole-2-carboxamide] were, in that order, 9 nM and above 25 µM.
For the compound `C[C@@H](NS(=O)(=O)c1cn(C)c(C(=O)Nc2ccc(F)cc2)c1F)C(F)(F)F` [Compound 285, 3-fluoro-N-(4-fluorophenyl)-1-methyl-4-[[(1R)-2,2,2-trifluoro-1-methyl-ethyl]sulfamoyl]pyrrole-2-carboxamide], the EC50 with HBV [2] amounted to 7 nM. Also, the half-maximal cytotoxic concentration (CC50) at 4 days in data set [3] is above 25 µM.
For `C[C@@H](NS(=O)(=O)c1cn(C)c(C(=O)Nc2ccc(F)c(C(F)F)c2)c1F)C(F)(F)F` [Compound 286, N-[3-(difluoromethyl)-4-fluoro-phenyl]-3-fluoro-1-methyl-4-[[(1R)-2,2,2-trifluoro-1-methyl-ethyl]sulfamoyl]pyrrole-2-carboxamide], the EC50 with HBV [2] came out at 5 nM. For the same compound, the cytotoxic concentration (CC50) at 4 days in data set [3] amounted to 21.9 µM.
`CC[C@@H](NS(=O)(=O)c1cn(C)c(C(=O)Nc2ccc(F)c(C#N)c2)c1Cl)C(F)(F)F` [Compound 290, 3-chloro-N-(3-cyano-4-fluoro-phenyl)-1-methyl-4-[[(1R)-1-(trifluoro-methyl)propyl]sulfamoyl]pyrrole-2-carboxamide]: the EC50 in the data set on HBV [2] was found to be 20 nM. This compound displayed a CC50 at 4 days in data set [3] above 25 µM.
The matching figures for `C[C@@H](NS(=O)(=O)c1cn(C)c(C(=O)Nc2ccc(F)c(C#N)c2)c1Br)C(F)(F)F` [Compound 292, 3-bromo-N-(3-cyano-4-fluoro-phenyl)-1-methyl-4-[[(1R)-2,2,2-trifluoro-1-methyl-ethyl]sulfamoyl]pyrrole-2-carboxamide]: 30 nM and 15.5 µM.
The matching figures for `Cc1c(S(=O)(=O)N[C@H](C)C(F)(F)F)c(F)c(C(=O)Nc2ccc(F)c(C#N)c2)n1C` [Compound 299, N-(3-cyano-4-fluoro-phenyl)-3-fluoro-1,5-dimethyl-4-[[(1R)-2,2,2-trifluoro-1-methyl-ethyl]sulfamoyl]pyrrole-2-carboxamide]: 9 nM and above 25 µM.
Regarding `C[C@@H](NS(=O)(=O)c1c(Cl)c(C(=O)Nc2ccc(F)c(C#N)c2)n(C)c1Br)C(F)(F)F` [Compound 300, 5-bromo-3-chloro-N-(3-cyano-4-fluoro-phenyl)-1-methyl-4-[[(1R)-2,2,2-trifluoro-1-methyl-ethyl]sulfamoyl]pyrrole-2-carboxamide], the EC50 in the data set on HBV [2] came to 8 nM. The CC50 at 4 days in data set [3] was found to be 14.2 µM.
The matching figures for `C[C@@H](NS(=O)(=O)c1c(F)c(C(=O)Nc2ccc(F)c(C#N)c2)n(C)c1Br)C(F)(F)F` [Compound 301, 5-bromo-N-(3-cyano-4-fluoro-phenyl)-3-fluoro-1-methyl-4-[[(1R)-2,2,2-trifluoro-1-methyl-ethyl]sulfamoyl]pyrrole-2-carboxamide]: 7 nM and above 25 µM.
The matching figures for `C[C@@H](NS(=O)(=O)c1c(Cl)c(C(=O)Nc2ccc(F)c(C#N)c2)n(C)c1C1CC1)C(F)(F)F` [Compound 302, 3-chloro-N-(3-cyano-4-fluoro-phenyl)-5-cyclopropyl-1-methyl-4-[[(1R)-2,2,2-trifluoro-1-methyl-ethyl]sulfamoyl]pyrrole-2-carboxamide]: 30 nM and above 25 µM.
The like results for `CC(C)c1c(S(=O)(=O)N[C@H](C)C(F)(F)F)cn(C)c1C(=O)Nc1ccc(F)c(C#N)c1` [Compound 303, N-(3-cyano-4-fluoro-phenyl)-3-isopropyl-1-methyl-4-[[(1R)-2,2,2-trifluoro-1-methyl-ethyl]sulfamoyl]pyrrole-2-carboxamide] were, in that order, above 12500 nM and above 25 µM.
`C[C@@H](NS(=O)(=O)c1c(F)c(C(=O)Nc2ccc(F)c(C#N)c2)n(C)c1C1CC1)C(F)(F)F` [Compound 304, N-(3-cyano-4-fluoro-phenyl)-5-cyclopropyl-3-fluoro-1-methyl-4-[[(1R)-2,2,2-trifluoro-1-methyl-ethyl]-sulfamoyl]-pyrrole-2-carboxamide]: the EC50 in the data set on HBV [2] came to 10 nM. Besides, the CC50 at 4 days in data set [3] is above 25 µM.
The matching figures for `Cn1cc(S(=O)(=O)NC2CCCC2)c(Cl)c1C(=O)Nc1ccc(F)c(C#N)c1` [Compound 307, 3-chloro-N-(3-cyano-4-fluoro-phenyl)-4-(cyclopentylsulfamoyl)-1-methyl-pyrrole-2-carboxamide]: 30 nM and above 25 µM.
The like results for `Cc1cc(NC(=O)c2c(Br)c(S(=O)(=O)N[C@H](C)C(F)(F)F)cn2C)ccc1F` [Compound 308, 3-bromo-N-(4-fluoro-3-methyl-phenyl)-1-methyl-4-[[(1R)-2,2,2-trifluoro-1-methyl-ethyl]sulfamoyl]pyrrole-2-carboxamide] were, in that order, 10 nM and above 25 µM.
Regarding `C=Cc1c(S(=O)(=O)N[C@H](C)C(F)(F)F)c(F)c(C(=O)Nc2ccc(F)c(C#N)c2)n1C` [Compound 311, N-(3-cyano-4-fluoro-phenyl)-3-fluoro-1-methyl-4-[[(1R)-2,2,2-trifluoro-1-methyl-ethyl]sulfamoyl]-5-vinyl-pyrrole-2-carboxamide], the EC50 in the data set with HBV [2] was 60 nM. Further, the CC50 at 4 days in data set [3] is above 25 µM.
As for `C[C@@H](NS(=O)(=O)c1cn(C)c(C(=O)Nc2ccc(F)cc2F)c1F)C(F)(F)F` [Compound 312, N-(2,4-difluorophenyl)-3-fluoro-1-methyl-4-[[(1R)-2,2,2-trifluoro-1-methyl-ethyl]sulfamoyl]pyrrole-2-carboxamide], in the data set on HBV [2], the half-maximal effective concentration (EC50) was determined as 60 nM. Further, in data set [3], the CC50 at 4 days was above 25 µM.
The matching figures for `C[C@@H](NS(=O)(=O)c1c(F)c(C(=O)Nc2ccc(F)c(C#N)c2F)n(C)c1Cl)C(F)(F)F` [Compound 314, 5-chloro-N-(3-cyano-2,4-difluoro-phenyl)-3-fluoro-1-methyl-4-[[(1R)-2,2,2-trifluoro-1-methyl-ethyl]sulfamoyl]pyrrole-2-carboxamide]: 7 nM and above 25 µM.
The matching figures for `C[C@@H](NS(=O)(=O)c1c(F)c(C(=O)Nc2ccc(F)c(C#N)c2F)n(C)c1Br)C(F)(F)F` [Compound 315, 5-bromo-N-(3-cyano-2,4-difluoro-phenyl)-3-fluoro-1-methyl-4-[[(1R)-2,2,2-trifluoro-1-methyl-ethyl]sulfamoyl]pyrrole-2-carboxamide]: 7 nM and above 25 µM.
The matching figures for `C[C@@H](NS(=O)(=O)c1cn(C)c(C(=O)Nc2ccc(F)c(C#N)c2)c1F)C(C)(F)F` [Compound 317, N-(3-cyano-4-fluoro-phenyl)-4-[[(1R)-2,2-difluoro-1-methyl-propyl]sulfamoyl]-3-fluoro-1-methyl-pyrrole-2-carboxamide]: 6 nM and above 25 µM.
For `C[C@H](NS(=O)(=O)c1cn(C)c(C(=O)Nc2ccc(F)c(C#N)c2)c1F)C(C)(F)F` [Compound 318, N-(3-cyano-4-fluoro-phenyl)-4-[[(1S)-2,2-difluoro-1-methyl-propyl]sulfamoyl]-3-fluoro-1-methyl-pyrrole-2-carboxamide], the concentration for a half-maximal effect (EC50) in the data set on HBV [2] was found to be 19 nM. The half-maximal cytotoxic concentration (CC50) at 4 days in data set [3] is above 25 µM.
The like results for `Cn1cc(S(=O)(=O)NC2(C(F)(F)F)CCC2)c(F)c1C(=O)Nc1ccc(F)c(C#N)c1` [Compound 319, N-(3-cyano-4-fluoro-phenyl)-3-fluoro-1-methyl-4-[[1-(trifluoromethyl)cyclobutyl]sulfamoyl]pyrrole-2-carboxamide] were, in that order, below 4 nM and above 25 µM.

The record behind these values is US9884818B2, “Sulphamoylpyrrolamide derivatives and the use thereof as medicaments for the treatment of hepatitis B” (Janssen Sciences Ireland UC, priority 2013, dated 2018).
